The source of these data is ChEMBL document CHEMBL5543120, “Discovery of Novel 5,6-Dihydro-4H-pyrido[2,3,4-de]quinazoline Irreversible Inhibitors Targeting Both Wild-Type and A775_G776insYVMA Mutated HER2 Kinases” (J Med Chem, 2024).

Data set [1] in a line: in vivo. Conditions: rat, po, 10 mg/kg.
Data set [2] is described as follows: in vivo. The note with it: rat, iv, 3 mg/kg.
Data set [3] is described as follows: in vivo. Conditions: rat, po, 10 mg/kg. This is another data set of the same source.
Data set [4] in a line: in vivo. The note with it: rat, iv, 3 mg/kg. The source holds these as a separate data set.
Data set [5] in a line: in vivo. The note with it: rat, iv, 3 mg/kg. This is another data set of the same source.
A short description of data set [6]: in vivo. Conditions: rat, po, 10 mg/kg. This is another data set of the same source.
A short description of data set [7]: in vivo. The note with it: rat, po, 10 mg/kg. This is another data set of the same source.
A short description of data set [8]: in vivo. The note with it: rat, iv, 3 mg/kg. The source holds these as a separate data set.
Data set [9] can be described thus: in vivo. Conditions: rat, po, 10 mg/kg. The source holds these as a separate data set.

Each structure is given as a SMILES string.

Turning to `CN1CCC[C@@H]1/C=C/C(=O)Nc1ccc2ncnc3c2c1CCN3c1ccc(OCc2ccccn2)c(Cl)c1`, the figures for the exposure AUC(0-t) in [1] and in data set [4] were 157 ng·h/mL and 667 ng·h/mL, respectively. In [2], this molecule displayed a clearance of 74.6 mL/min/kg. In addition, the Tmax in data set [3] was 0.5 h. In [5], this molecule registered a Vd of 17.8 L/kg. For the same molecule, the half-life in data set [6] is 388 min; in data set [8] it was 293 min. Besides, the Cmax in data set [7] was 23.8 ng/mL. The bioavailability in data set [9] came to 7.43%.

With `CN(C)C/C=C/C(=O)Nc1ccc2ncnc(Nc3ccc(OCc4ccccn4)c(Cl)c3)c2c1-c1ccccc1`, the AUC(0-t) in data set [1] came to 1300 ng·h/mL; in data set [4], 1290 ng·h/mL. Further, in data set [2], the clearance was 38.4 mL/min/kg. For the same molecule, in data set [3], the Tmax came out at 3.67 h. Besides, the Vd in data set [5] was 8.1 L/kg. Further, the half-life in data set [6] was 246 min; in data set [8], 229 min. The same molecule displayed a Cmax in data set [7] of 124 ng/mL. This molecule showed a bioavailability in data set [9] of 30.4%.

For the molecule `CCOc1cc2ncc(C#N)c(Nc3ccc(OCc4ccccn4)c(Cl)c3)c2cc1NC(=O)/C=C/CN(C)C` [NERATINIB], the clearance in data set [2] worked out at 20.8 mL/min/kg. Moreover, the volume of distribution (Vd) in data set [5] stood at 5.01 L/kg. For the same molecule, in data set [9], the bioavailability was 18.2%.
